Test results: patent publication US12594264B2, “Modulators of alpha-synuclein proteolysis and associated methods of use” (Arvinas Operations, Inc., priority 2018, dated 2026)

Columns and labels:
[1] = target: T1, SI A53T α-synuclein protein oligomers (Homo sapiens, UniProt P37840, A53T); experiment: E3 ligase ligand competition experiment (Oligomer ELISA); assay type: cell-based; conditions: for Degradation activity with co-incubated excess E3 ligase ligand: 1 uM compound plus 15-fold molar excess E3 ligase ligand (VHL Ligand with 7, Cereblon Ligand with 23), FIG. 6A bars 2 and 4; for Reduction of SI A53T α-synuclein oligomers (Oligomer ELISA), compound alone: 1 uM compound, no competitor, FIG. 6A bars 1 and 3
T1 construct: expressed in transfected cells
Description: FIGS. 6A and 6B. α-Synuclein bifunctional degradation compound activity requires the E3 ligase activity for effective degradation. Pre-formed alpha-synuclein fibrils (α-syn PFFs) were added to TREX tetracycline inducible HEK293 cells that overexpress A53T mutant α-syn to induce detergent-insoluble oligomers as measured by Oligomer ELISA. Doxycycline induced α-syn A53T cells were treated with PFFs to produce higher order oligomeric α-syn A53T in the sarkosyl insoluble fraction and SI α-syn oligomers were detected by ELISA, as described in below. Exemplary bifunctional degradation compounds 7 and 23 at 1 uM concentration, used to generate the data shown in bars 1 and 3, reduced sarkosyl insoluble α-syn.
(§1) Trex293 (doxycycline inducible) cells stably expressing human α-SYN A53T (monoclonal) were plated in poly-d-lysine coated T-75 tissue culture flasks (4.5×10e6 cells/flask) in DMEM with 10% tet-free FBS, 10 μg/ml blasticidin, and 400 μg/ml zeocin. After an overnight incubation, the cells were induced to express α-SYN by treatment with 1 μg/ml doxycycline (Dox) and exemplary bifunctional compound. After a 24 hour dox induction, the medium on the cells was changed to Opti-MEM followed by treatment with α-SYN pre-formed fibrils** (PFFs)(5 μg/flask) pre-complexed with Lipofectamine 2000 transfection reagent for 4 hours. After PFF treatment, the medium was changed back to DMEM with the supplements described above and exemplary bifunctional compound for 48 hours.
(§2) Cell pellets were harvested from each flask using 0.25% trypsin followed by spinning at 500×g for 5 minutes. Each pellet was resuspended in 1 ml cold buffer H [Buffer H-10 mM Tris, 1 mM EGTA, 0.8M NaCl, 10% sucrose, pH7.4 containing 1× protease and phosphatase inhibitors] containing protease and phosphatase inhibitors. The resuspended pellets were incubated on ice for 20 minutes followed by centrifugation at 27,200×g for 20 minutes at 4° C. The supernatants were adjusted to 1% sarkosyl (Sigma) and 1% 2-mercaptoethanol followed by incubation for 1 hour at 37° C. on an orbital shaker set to 400 rpm. The samples were then spun at 150,000×g for 35 minutes at room temperature. The supernatant was removed and saved as the soluble fraction and the insoluble pellet was resuspended in 25 μl tris-buffered saline (TBS). Protein concentrations were determined by NanoDrop, and normalized protein concentrations were analyzed by WES capillary electrophoresis as well as an α-SYN oligomer ELISA.
Coming Costar high bind black well plates were coated with MJFR 14-6-4-2 (Abcam) at 1 μg/ml for 1 hour at 37° C. followed by washing with 1×TBS+0.1% tween-20 (TBS-T) then blocking with 3% bovine serum albumin (BSA) in TBS. […] The plate was read on a luminescence plate reader. The counts were log transformed and read off the standard curve. […]

[2] = target: T2, sarkosyl insoluble (SI) α-synuclein (human α-SYN A53T) (Homo sapiens, UniProt P37840, A53T); experiment: MJFF-14-6-4-2 conformation specific ELISA of sarkosyl insoluble α-synuclein after compound treatment; assay type: cell-based; conditions: 1 μM compound; protein remaining relative to DMSO control; PFF induced A53T α-synuclein overexpressing HEK293 cells; read-out: Protein Degradation at 1 μM
T2 construct: expressed in transfected cells
Description: (§3) Targeted degradation of sarkosyl insoluble (SI) α-synuclein via exemplary bifunctional compounds was assessed by MJFF-14-6-4-2 conformation specific ELISA following treatment of PFF induced A53T α-synuclein overexpressing HEK293 cells with 1 μM exemplary compound compared to DMSO vehicle control. Degradation activity of the exemplary compounds of Table 2 is expressed as % DMSO control. […] However, the effect of bifunctional targeting degraders, shown in FIG. 5, required the intact E3 ligase binding domain.
as §1, §2
Recombinant human α-SYN was purchased from Proteos. 1 mg aliquots were supplied at 10 mg/ml in 10 mM Tris, 50 mM NaCl, pH7.6. The aliquot was thawed on ice followed by centrifugation at 4° C. for 10 minutes at 12,000×g to pellet any insoluble material. The supernatant was removed and quantitated on a NanoDrop (A280) using Beer's Law (ε=5960 M-1 cm-1). The concentration was adjusted to 5 mg/ml in PBS followed by vortexing for 3 seconds to mix contents. The mixture was incubated in an orbital shaker set to 37° C. at 1,000 rpm for 7 days followed by aliquoting into individual use vials. Prior to addition to cells, an aliquot was thawed at room temperature, then diluted to 1 mg/ml with phosphate-buffered saline (PBS) followed by sonication for 1 minute with a probe sonicator (output 1; 90% duty cycle) in a chem hood.
Coming Costar high bind black well plates were coated with MJFR 14-6-4-2 (Abcam) at 1 μg/ml for 1 hour at 37° C. followed by washing with 1×TBS+0.1% tween-20 (TBS-T) then blocking with 3% bovine serum albumin (BSA) in TBS. After re-washing, samples were added after dilution in diluent (1% BSA/TBS-T). Non-sonicated PFF was used to generate a standard curve. The plates were incubated with sample overnight at 4° C. with shaking. The following day alkaline phosphatase (AP) conjugated MJFR 14-6-4-2 was added to the plate without washing followed by incubation at room temperature for 1 hour with shaking or rocking. The plates were then re-washed and substrate (CDP star alkaline phosphatase detection reagent) was added followed by a 30 minute incubation at room temperature. The plate was read on a luminescence plate reader. The counts were log transformed and read off the standard curve. […]

[3] = system: PFF induced HEK293 TREX α-syn A53T cells; experiment: Cytotoxicity by visual inspection of treated cells; assay type: cell-based, human; conditions: 1 μM
Description: as §3, §1
To assess targeted degradation of sarkosyl insoluble α-synuclein, exemplary bifunctional compounds designed to bind to oligomeric α-synuclein were tested at 1 μM in PFF induced HEK293 TREX α-syn A53T cells.

Compound	Degradation activity with co-incubated excess E3 ligase ligand [1]	Reduction of SI A53T α-synuclein oligomers (Oligomer ELISA), compound alone [1]	remaining activity at 1 µM [2]	Cytotoxicity at the concentration tested [3]	Cytotoxicity at the concentration tested ([3]; listed as 12)	Cytotoxicity at the concentration tested ([3]; listed as 9)	Cytotoxicity at the concentration tested ([3]; listed as 25)
O=C1CCC(N2C(=O)c3ccc(N4CCN(CCN5CCC(OC6CN(CCCN7c8ccccc8Sc8ccccc87)C6)CC5)CC4)cc3C2=O)C(=O)N1 (stereo not drawn) [Exemplary Compound 23, 5-(4-(2-(4-((1-(3-(10H-phenothiazin-10-yl)propyl)azetidin-3-yl)oxy)piperidin-1-yl)ethyl)piperazin-1-yl)-2-(2,6-dioxopiperidin-3-yl)isoindoline-1,3-dione]	effectively competed	effectively reduced	35 to 70%	–	–	–	–
Cc1ncsc1-c1ccc([C@H](C)NC(=O)[C@@H]2C[C@@H](O)CN2C(=O)[C@@H](NC(=O)COCCOCCOc2ccc(CN3C(=O)C(=CC=Cc4ccc([N+](=O)[O-])cc4)c4ccccc43)cc2)C(C)(C)C)cc1 (single isomer, unassigned) [Exemplary Compound 7]	effectively competed	effectively reduced	35 to 70%	without any visual impact to cell health	–	–	–
CNc1ccc(-c2nc3ccc(OCCOCCOCCOCC(=O)N[C@H](C(=O)N4C[C@H](O)C[C@H]4C(=O)N[C@@H](C)c4ccc(-c5scnc5C)cc4)C(C)(C)C)cc3s2)cc1 [Exemplary Compound 2, (2S,4R)-1-((S)-2-(tert-butyl)-14-((2-(4-(methylamino)phenyl)benzo[d]thiazol-6-yl)oxy)-4-oxo-6,9,12-trioxa-3-azatetradecanoyl)-4-hydroxy-N—((S)-1-(4-(4-methylthiazol-5-yl)phenyl)ethyl)pyrrolidine-2-carboxamide]	–	–	35 to 70%	without any visual impact to cell health	–	–	–
CNc1ccc(-c2nc3ccc(OCCOCCOCCOCCOCCOCCOCC(=O)N[C@H](C(=O)N4C[C@H](O)C[C@H]4C(=O)N[C@@H](C)c4ccc(-c5scnc5C)cc4)C(C)(C)C)cc3s2)cc1 [Exemplary Compound 5, (2S,4R)-1-((S)-2-(tert-butyl)-23-((2-(4-(methylamino)phenyl)benzo[d]thiazol-6-yl)oxy)-4-oxo-6,9,12,15,18,21-hexaoxa-3-azatricosanoyl)-4-hydroxy-N-((S)-1-(4-(4-methylthiazol-5-yl)phenyl)ethyl)pyrrolidine-2-carboxamide]	–	–	< 35%	without any visual impact to cell health	–	–	–
Cc1ncsc1-c1ccc([C@H](C)NC(=O)[C@@H]2C[C@@H](O)CN2C(=O)[C@@H](NC(=O)COCCOCCOCCOCCOCCOCCOc2ccc3c(c2)Sc2cc([N+](=O)[O-])ccc2N3)C(C)(C)C)cc1 [Exemplary Compound 12, (2S,4R)-1-((S)-2-(tert-butyl)-23-((7-nitro-10H-phenothiazin-3-yl)oxy)-4-oxo-6,9,12,15,18,21-hexaoxa-3-azatricosanoyl)-4-hydroxy-N-((S)-1-(4-(4-methylthiazol-5-yl)phenyl)ethyl)pyrrolidine-2-carboxamide]	–	–	> 120%	cytotoxicity	cytotoxic	–	–
Cc1ncsc1-c1ccc([C@H](C)NC(=O)[C@@H]2C[C@@H](O)CN2C(=O)[C@@H](NC(=O)COCCOCCOCCOc2ccc3c(c2)Sc2cc([N+](=O)[O-])ccc2N3)C(C)(C)C)cc1 [Exemplary Compound 9, (2S,4R)-1-((S)-2-(tert-butyl)-14-((7-nitro-10H-phenothiazin-3-yl)oxy)-4-oxo-6,9,12-trioxa-3-azatetradecanoyl)-4-hydroxy-N-((S)-1-(4-(4-methylthiazol-5-yl)phenyl)ethyl)pyrrolidine-2-carboxamide]	–	–	> 120%	cytotoxicity	–	cytotoxic	–
COc1ccc2nc(-c3ccc(N4CC(OC5CCN(CCCCCOc6ccc7c(c6)C(=O)N(C6CCC(=O)NC6=O)C7=O)CC5)C4)cc3)sc2c1 (stereo not drawn) [Exemplary Compound 25, 2-(2,6-dioxopiperidin-3-yl)-5-([5-[4-([1-[4-(6-methoxy-1,3-benzothiazol-2-yl)phenyl]azetidin-3-yl]oxy)piperidin-1-yl]pentyl]oxy)-2,3-dihydro-1H-isoindole-1,3-dione]	–	–	> 120%	cytotoxicity	–	–	cytotoxic
Cc1ncsc1-c1ccc([C@H](C)NC(=O)[C@@H]2C[C@@H](O)CN2C(=O)[C@@H](NC(=O)COCCOCCOc2ccc(CN3C(=O)C(=CC=Cc4ccc([N+](=O)[O-])cc4)c4ccccc43)cc2)C(C)(C)C)cc1 (single isomer, unassigned) [Exemplary Compound 6]	–	–	–	without any visual impact to cell health	–	–	–
